Data published in ChEMBL document CHEMBL1129630, “Synthesis and structure-activity relationships of retinoid X receptor selective diaryl sulfide analogs of retinoic acid” (J Med Chem, 1996).

System: HL-60
Assay: Induction of transglutaminase (TGase) activity in HL-60 cells
Details: Homo sapiens

## C/C(=C\c1ccc(C(=O)O)cc1)c1ccc2c(c1)C(C)(C)CCC2(C)C
  EC50: > 1000 nM
